Measured values reported in patent US9528092B2, “Methods of efficiently establishing induced pluripotent stem cells under hypoxic conditions” (Kyoto University, priority 2008, dated 2016).

Tested on: four-factor transduced MEFs
Assay: Flow cytometric analysis of Nanog-GFP-positive cells on day 9 posttransduction
Assay type: cell-based, mouse
Conditions: day 5 to day 9 posttransduction, flow cytometry on day 9, four factors alone 0.01%
Procedure: Mice having a Nanog reporter were used as an experimental system. The Nanog reporter used was prepared by inserting the enhanced green fluorescent protein (EGFP) and puromycin resistant genes into the Nanog locus of a BAC (bacterial artificial chromosome) purchased from BACPAC Resources [Okita K. et al., Nature 448, 313-317 (2007)]. The mouse Nanog gene is expressed specifically in pluripotent cells such as ES cells and early embryos. The mouse iPS cells that have become positive for this reporter are known to be nearly equivalent to ES cells in terms of differentiation potential. Mouse embryonic fibroblasts (MEFs) and tail-tip fibroblasts (TTFs) obtained from a Nanog reporter mouse having this Nanog reporter [Okita K. et al., Nature 448, 313-317 (2007)] were transfected by means of retroviruses to establish iPS cells, and colonies expressing EGFP from the Nanog reporter were counted to evaluate the efficiency of establishment of iPS cells.
To investigate whether GFP-positive cells were detected earlier or not, the four-factor transduced MEFs were cultivated under 20% oxygen or under 5% oxygen with or without 2 mM valproic acid (VPA) from day 5 to day 9 posttransduction, and were subjected to flow cytometric analysis on day 9. Retroviral expression of four factors induced 0.01% of the cells to become GFP-positive on day 9 posttransduction. […]

Structure (SMILES): CCCC(CCC)C(=O)O [VPA, valproic acid]
- percentage of GFP-positive cells (2 mM VPA, 20% oxygen): 0.48%
- percentage of GFP-positive cells (co-treatment with hypoxia (5% oxygen) and 2 mM VPA): 2.28%
